Measurements taken from PubChem BioAssay AID328 (DTP/NCI, 2004).
Several values for one entry are separate records, joined by “and”; a condition that tells them apart may be missing. Equal entries are not always repeated. Toxic doses and inconclusive results are not listed.

System: BDF1 mice, P388 leukemia ip, median survival T/C
Assay: NCI In Vivo Anticancer Drug Screen. Data for tumor model P388 Leukemia (intraperitoneal) in B6D2F1 (BDF1) mice
Details: endpoint: median survival time, higher = longer survival
How it was run: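 Mice carrying the transplantable tumour receive compound or vehicle. Survival is followed in each arm, and the treated measure is divided by the vehicle measure.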

[1] = dose: 200.0 mg/kg/injection, schedule: Q01DX009 (ip), vehicle: saline
[2] = dose: 50.0 mg/kg/injection, schedule: Q01DX009 (ip), vehicle: saline with Tween-80
[3] = dose: 100.0 mg/kg/injection, schedule: Q01DX009 (ip), vehicle: saline with Tween-80
[4] = dose: 200.0 mg/kg/injection, schedule: Q01DX009 (ip), vehicle: saline with Tween-80
[5] = dose: 25.0 mg/kg/injection, schedule: Q04DX003 (ip), vehicle: saline
[6] = dose: 100.0 mg/kg/injection, schedule: Q01DX009 (ip), vehicle: saline
[7] = dose: 100.0 mg/kg/injection, schedule: Q04DX003 (ip), vehicle: Klucel (hydroxypropylcellulose) (HPC)
[8] = dose: 50.0 mg/kg/injection, schedule: Q04DX003 (ip), vehicle: saline
[9] = dose: 100.0 mg/kg/injection, schedule: Q04DX003 (ip), vehicle: saline

SMILES: COc1cc(C(=O)O)c2c(c1C)OC(=O)c1c(C)cc(O)c(C=O)c1O2
- T/C (dose: 2.0 mg/kg/injection, schedule: Q01DX010 (ip), vehicle: saline): 95 % of control
- T/C (dose: 4.0 mg/kg/injection, schedule: Q01DX009 (ip), vehicle: Klucel (hydroxypropylcellulose) (HPC)): 109 % of control
- T/C (dose: 4.0 mg/kg/injection, schedule: Q01DX010 (ip), vehicle: saline): 90 % of control and 122 % of control and 123 % of control
- T/C (dose: 8.0 mg/kg/injection, schedule: Q01DX010 (ip), vehicle: saline): 90 % of control
- T/C (dose: 10.0 mg/kg/injection, schedule: Q04DX003 (ip), vehicle: saline): 104 % of control
- T/C (dose: 16.0 mg/kg/injection, schedule: Q01DX010 (ip), vehicle: saline): 113 % of control and 123 % of control
- T/C (dose: 20.0 mg/kg/injection, schedule: Q04DX003 (ip), vehicle: saline): 115 % of control
- T/C (dose: 40.0 mg/kg/injection, schedule: Q01DX001 (ip), vehicle: saline): 111 % of control
- T/C (dose: 80.0 mg/kg/injection, schedule: Q01DX001 (ip), vehicle: saline): 115 % of control
- T/C (dose: 80.0 mg/kg/injection, schedule: Q04DX003 (ip), vehicle: saline): 104 % of control

SMILES: CCc1ccccc1OS(=O)(=O)c1ccc([N+](=O)[O-])cc1
- T/C (dose: 100.0 mg/kg/injection, schedule: Q01DX009 (ip), vehicle: saline sonified): 88 % of control
- T/C (dose: 200.0 mg/kg/injection, schedule: Q01DX009 (ip), vehicle: saline sonified): 88 % of control
- T/C (dose: 400.0 mg/kg/injection, schedule: Q01DX009 (ip), vehicle: saline sonified): 94 % of control

SMILES: Cn1cnc([N+](=O)[O-])c1Sc1ncnc2nc[nH]c12
- T/C (dose: 44.0 mg/kg/injection, schedule: Q04DX003 (ip), vehicle: saline sonified): 110 % of control
- T/C (dose: 66.0 mg/kg/injection, schedule: Q04DX003 (ip), vehicle: saline sonified): 120 % of control
- T/C (dose: 150.0 mg/kg/injection, schedule: Q04DX003 (ip), vehicle: saline sonified): 175 % of control
- T/C [1]: 86 % of control
- T/C (dose: 400.0 mg/kg/injection, schedule: Q04DX003 (ip), vehicle: saline sonified): 109 % of control

SMILES: COC(=O)/C=C1\Sc2ccc(C(F)(F)F)cc2NC1=O
- T/C [2]: 91 % of control
- T/C [3]: 91 % of control
- T/C [4]: 91 % of control

SMILES: CNC1C(OC2C(OC3C(O)C(O)C(N=C(N)N)C(O)C3N=C(N)N)OC(C)C2(O)C=O)OC(CO)C(O)C1O (centres undefined)
- T/C (dose: 100.0 mg/kg/injection, schedule: Q01DX009 (ip), vehicle: water): 103 % of control
- T/C (dose: 200.0 mg/kg/injection, schedule: Q01DX009 (ip), vehicle: water): 112 % of control
- T/C (dose: 400.0 mg/kg/injection, schedule: Q01DX009 (ip), vehicle: water): 103 % of control

SMILES: N#Cc1cn(C2OC(CO)C(O)C2O)c2nc(Cl)nc(N)c12 (centres undefined)
- T/C (dose: 6.25 mg/kg/injection, schedule: Q04DX003 (ip), vehicle: saline): 112 % of control
- T/C (dose: 12.5 mg/kg/injection, schedule: Q04DX003 (ip), vehicle: saline): 166 % of control
- T/C [5]: 166 % of control

SMILES: Cc1cc(NC(=O)Nc2ccc(Cl)cc2)no1
- T/C [2]: 100 % of control
- T/C [3]: 100 % of control
- T/C [4]: 100 % of control

SMILES: CCOC(=O)C(CSCSC)NC(=O)/C=C/c1cccnc1 (centres undefined)
- T/C [6]: 96 % of control
- T/C (dose: 100.0 mg/kg/injection, schedule: Q04DX003 (ip), vehicle: saline with Tween-80): 91 % of control
- T/C [1]: 106 % of control
- T/C (dose: 200.0 mg/kg/injection, schedule: Q04DX003 (ip), vehicle: saline with Tween-80): 91 % of control
- T/C (dose: 400.0 mg/kg/injection, schedule: Q01DX009 (ip), vehicle: saline): 104 % of control
- T/C (dose: 400.0 mg/kg/injection, schedule: Q04DX003 (ip), vehicle: saline with Tween-80): 120 % of control

SMILES: Cc1nc2[nH][nH]c(=O)c2nc1C
- T/C (dose: 100.0 mg/kg/injection, schedule: Q01DX009 (ip), vehicle: Klucel (hydroxypropylcellulose) (HPC)): 100 % of control
- T/C [7]: 104 % of control
- T/C (dose: 200.0 mg/kg/injection, schedule: Q01DX009 (ip), vehicle: Klucel (hydroxypropylcellulose) (HPC)): 110 % of control
- T/C (dose: 200.0 mg/kg/injection, schedule: Q04DX003 (ip), vehicle: Klucel (hydroxypropylcellulose) (HPC)): 92 % of control
- T/C (dose: 400.0 mg/kg/injection, schedule: Q04DX003 (ip), vehicle: Klucel (hydroxypropylcellulose) (HPC)): 100 % of control

SMILES: O=[N+]([O-])c1ccc(Nc2ccc(Cl)c(Cl)c2)c2c1no[n+]2[O-]
- T/C (dose: 17.5 mg/kg/injection, schedule: Q01DX009 (ip), vehicle: saline with Tween-80): 88 % of control
- T/C (dose: 35.0 mg/kg/injection, schedule: Q01DX009 (ip), vehicle: saline with Tween-80): 92 % of control
- T/C (dose: 70.0 mg/kg/injection, schedule: Q01DX009 (ip), vehicle: saline with Tween-80): 88 % of control

SMILES: COc1cc2c[n+](C)c3c4cc5c(cc4ccc3c2cc1OC)OCO5 (tested in a mixture with another compound)
- T/C (dose: 1.25 mg/kg/injection, schedule: Q01DX009 (ip), vehicle: water): 124 % of control
- T/C (dose: 10.0 mg/kg/injection, schedule: Q01DX009 (ip), vehicle: saline): 163 % of control and 166 % of control
- T/C (dose: 10.0 mg/kg/injection, schedule: Q01DX009 (ip), vehicle: water): 160 % of control
- T/C (dose: 20.0 mg/kg/injection, schedule: Q01DX009 (ip), vehicle: saline): 172 % of control and 188 % of control and 203 % of control
- T/C (dose: 20.0 mg/kg/injection, schedule: Q01DX009 (ip), vehicle: water): 150 % of control
- T/C (dose: 40.0 mg/kg/injection, schedule: Q01DX009 (ip), vehicle: saline): 174 % of control and 215 % of control
- T/C (dose: 40.0 mg/kg/injection, schedule: Q01DX009 (ip), vehicle: water): 110 % of control
- T/C (dose: 80.0 mg/kg/injection, schedule: Q01DX009 (ip), vehicle: saline): 172 % of control and 188 % of control

SMILES: CC(=O)O/C(C#N)=C1\CCCC\C1=C(\C#N)OC(C)=O
- T/C (dose: 25.0 mg/kg/injection, schedule: Q01DX001 (ip), vehicle: saline with Tween-80): 103 % of control

SMILES: CCCCCCCCCCCCCCCCCOc1ccc(I)cc1
- T/C (dose: 50.0 mg/kg/injection, schedule: Q01DX001 (ip), vehicle: saline with Tween-80): 95 % of control
- T/C (dose: 100.0 mg/kg/injection, schedule: Q01DX001 (ip), vehicle: saline with Tween-80): 100 % of control
- T/C (dose: 200.0 mg/kg/injection, schedule: Q01DX001 (ip), vehicle: saline with Tween-80): 90 % of control

SMILES: CCOC(=O)/C(C#N)=C/C=C1C=CN(C)C=C1
- T/C [2]: 86 % of control
- T/C [3]: 105 % of control
- T/C [4]: 116 % of control

SMILES: NC(=S)NCc1ccccc1C(O)c1ccccc1 (centres undefined)
- T/C [2]: 94 % of control
- T/C [3]: 91 % of control
- T/C [4]: 101 % of control

SMILES: CN(C)CCCNC1=C(Cl)C(=O)c2ccccc2C1=O
- T/C (dose: 6.25 mg/kg/injection, schedule: Q01DX009 (ip), vehicle: Klucel (hydroxypropylcellulose) (HPC)): 114 % of control
- T/C (dose: 12.5 mg/kg/injection, schedule: Q01DX009 (ip), vehicle: Klucel (hydroxypropylcellulose) (HPC)): 109 % of control
- T/C (dose: 25.0 mg/kg/injection, schedule: Q01DX009 (ip), vehicle: Klucel (hydroxypropylcellulose) (HPC)): 116 % of control

SMILES: CSCC(N)CO (centres undefined)
- T/C [5]: 104 % of control
- T/C [8]: 111 % of control and 116 % of control
- T/C [9]: 116 % of control
- T/C (dose: 200.0 mg/kg/injection, schedule: Q04DX003 (ip), vehicle: saline): 109 % of control and 111 % of control
- T/C (dose: 400.0 mg/kg/injection, schedule: Q04DX003 (ip), vehicle: saline): 90 % of control and 120 % of control

SMILES: O=C(/C=C/c1cccc(O)c1)c1ccccc1
- T/C [2]: 91 % of control
- T/C [3]: 99 % of control
- T/C [4]: 101 % of control

SMILES: CC(C)(C)NCc1cc(C(C)(C)C)cc(-c2ccc(Cl)cc2)c1O
- T/C [2]: 99 % of control
- T/C [3]: 102 % of control

SMILES: COc1ccc(/C=C2\SC(=S)N(CCCN3CCOCC3)C2=O)c(OC)c1
- T/C [2]: 97 % of control
- T/C [3]: 92 % of control
- T/C [4]: 95 % of control

SMILES: CC1=CCS(=O)(=O)C1
- T/C (dose: 25.0 mg/kg/injection, schedule: Q01DX001 (ip), vehicle: other): 95 % of control
- T/C (dose: 25.0 mg/kg/injection, schedule: Q01DX009 (ip), vehicle: saline): 113 % of control
- T/C [5]: 91 % of control
- T/C (dose: 50.0 mg/kg/injection, schedule: Q01DX001 (ip), vehicle: other): 86 % of control
- T/C (dose: 50.0 mg/kg/injection, schedule: Q01DX009 (ip), vehicle: saline): 100 % of control
- T/C [8]: 87 % of control
- T/C (dose: 100.0 mg/kg/injection, schedule: Q01DX001 (ip), vehicle: other): 95 % of control
- T/C [6]: 109 % of control
- T/C [9]: 91 % of control

SMILES: Cc1cc(Cl)ccc1Nc1sc(C(=O)c2cc3cc(Cl)ccc3o2)c(N)c1C#N
- T/C [2]: 104 % of control
- T/C [3]: 93 % of control
- T/C [4]: 89 % of control

SMILES: O=C(O)CCc1cccnc1
- T/C [3]: 104 % of control

SMILES: [N-]=[N+]=C1C(=O)NN=C1c1ccccc1
- T/C (dose: 25.0 mg/kg/injection, schedule: Q04DX003 (ip), vehicle: Klucel (hydroxypropylcellulose) (HPC)): 104 % of control
- T/C (dose: 50.0 mg/kg/injection, schedule: Q04DX003 (ip), vehicle: Klucel (hydroxypropylcellulose) (HPC)): 114 % of control
- T/C [7]: 95 % of control
